For series [1], the target named is T1, Bovine brain tubulin (Bos taurus, UniProt P81947+Q6B856).
T1 construct: purchased Cytoskeleton, Denver, Colo; host or cells: brain tissue
As to the kind of experiment: In vitro microtubule polymerization assay (Example 6). In kind it is biochemical. Conditions: absorbance at 340 nm, 15 min; for inhibition of tubulin polymerization: 10 μM. The protocol: The absorbance at 340 nm was monitored every 1 min for 15 min by the SYNERGY 4 Microplate Reader (Bio-Tek Instruments, Winooski, Vt.). The spectrophotometer was set at 37° C. for tubulin polymerization.

The test system of another series is B16-F1 melanoma cells. Kind of series: B16-F1 melanoma colony formation assay in soft agar. Format: cell-based, mouse. Conditions: 14 days. Here is the method: B16-F1 melanoma cells were plated at a colony-forming density (2000 cells per well on six-well plates) on top of 0.8% base agar. Cells were grown in 0.4% agar together with DMEM medium supplemented with fetal bovine serum and an antibiotic-antimycotic solution at 37° C. in an atmosphere of 95% air and 5% CO2. […] Compounds were added to the media from 1 mM DMSO stock solutions, and a corresponding dilution of DMSO was used as control. Cells were grown for 14 days. Plates were photographed, and the number of colonies was measured by Artek 880 Automated Colony Counter (Artek Systems Corporation, Farmingdale, N.Y.).

Series [2] relates to melanoma nodules in the lungs. As to the kind of experiment: Melanoma lung metastasis model in mice. Conditions: i.p. injection 5 days per week for 2 weeks (n=8 per group). Format: in vivo, mouse. The source says: Panel A: Representative photos of lungs with melanoma nodules (black dots, n=8 per group). Treatment was i.p. injection 5 days per week for 2 weeks. Panel B: Number of melanoma nodules on each lung. Points: individual nodule number; long line in the middle: mean; short line on the top and bottom: 95% confidence intervals ** and ##: p<0.01. Panel C: Mouse body weight changes during the experiment. Points: means; bars: SD. Control: vehicle solution only.

For series [3], the system named is A375 human melanoma xenograft. Conditions: 12da 25 mg/kg; Wang Z et al., Pharm. Res. 29(11); cited from earlier work.
The subject of the next series is NCl/ADR-RES. Kind of series: In vitro growth inhibition, NCI/ADR-RES. Format: cell-based. Conditions: Homo sapiens, Table 9, read-out: IC50 ± SEM (nM) NCl/ADR-RES.
In series [4] the test system is pAKT/tAKT in MDA-MB-435 cells. As to the kind of experiment: Western blot analysis in MDA-MB-435. The note with it: MDA-MB-435, 48 h. Format: cell-based, human. Here is the method: (§1) At the indicated time treatment, human melanoma A375RF21, MDA-MB-435 or WM164 cells were collected to investigate relevant cascade protein or apoptosis markers by western blots. Total protein was extracted by lysing cells with RIPA buffer (Sigma-Aldrich, St. Louis, Mo.) containing phosphatase-proteinase inhibitor cocktail (Sigma-Aldrich, St. Louis, Mo.). General protein concentration was then determined by BCA method using kit (Sigma-Aldrich, St. Louis, Mo.). The cell lysates were diluted to equal general protein concentration using Laemmli loading buffer (Bio-Rad, Hercules, Calif.) and boiled for 5 min to denature the protein. Then group samples containing 10 μg general proteins were loaded to each well of 4-15% Tris-HCl pre-cast polyacrylamide gel (Bio-Rad, Hercules, Calif.) for electrophoresis and subsequently transferred to 0.2 μm nitrocellulose membrane (Bio-Rad, Hercules, Calif.). […] Target proteins were detected by incubating with 1× LumiGLO® reagent (Cell Signaling, #7003) for one minute and exposed to x-ray film. The films were scanned with grey scale and lane intensities were quantified with the ImageJ software (NIH, Bethesda, Md., USA).

The next series relates to OVCAR-8. As to the kind of experiment: In vitro growth inhibition, OVCAR-8. Format: cell-based. Conditions: Homo sapiens, OVCAR-8; Table 9; read-out: IC50 ± SEM (nM) OVCAR-8.
A further series concerns A375RF21. Kind of series: In vitro combination assay (combination index) in A375RF21. In kind it is cell-based, human. Conditions: combination with vemurafenib.
The test system of series [5] is pAKT/tAKT and pERK in A375RF21 cells. As to the kind of experiment: Western blot analysis in A375RF21. Format: cell-based, human. The protocol:
as §1

Series [6] relates to A375RF21 cells. Kind of series: Cell cycle analysis (flow cytometry) in A375RF21. Format: cell-based, human. Conditions: for G2/M arrest: A375RF21, 20 nM. Here is the method:
(§2) Flow cytometry analysis was performed as described before (Wang Z, Chen J, Wang J, et al. “Novel tubulin polymerization inhibitors overcome multidrug resistance and reduce melanoma lung metastasis.” Pharm. Res. (2012) 29: 3040-3052). To determine cell cycle distributions in the G2 and M phases (FIG. 23), cells were harvested with trypsin, stained using antiphospho-histone H3-AlexaFluor® 488 antibody on ice for one hour in the dark, followed by stained using PI/RNase solution for 30 minutes at room temperature in the dark per the manufacturer's instructions (#FCCH025103, EMD Millipore Corporation, Ballerica, Mass.). Data were further processed and graphs were prepared using the Modfit 2.0 program (Verity Software House, Topsham, Me.).

The next series deals with pAKT/tAKT in WM164 cells. As to the kind of experiment: Western blot analysis in WM164. In kind it is cell-based, human. The note with it: WM164, 48 h. Here is the method:
as §1

In series [7] the test system is three melanoma cell lines and four human prostate cancer cell lines. Kind of series: Antiproliferative activity, average over melanoma and prostate cancer cell lines. Format: cell-based. The note with it: for IC50: Homo sapiens, discussion of Tables 8-10.
The subject of series [8] is A375 human melanoma xenograft. Kind of series: A375 human melanoma xenograft in SHO nude mice. The note with it: 12fb 25 mg/kg, 31 days. Format: in vivo.
Description: SHO nude mice bearing an A375 human melanoma xenograft (n=5 per group). Each mouse received 2.5×10^6 cells by s.c. injection into the flank. 30 μL i.p. daily treatments were started when the tumor size reached ˜150 mm^3. Control, vehicle solution only; points, means; bars, SD.
In vivo evaluation of efficacy. […] The cell suspension (100 μL) was injected subcutaneously in the right dorsal flank of each mouse. When tumor size reached about 100-150 mm^3, about 7 days after cell inoculation, all mice bearing tumors were divided into control and treatment groups based on tumor size (n=5 per group). Each group had similar average tumor size. Mice in control groups (negative control) were injected intraperitoneally with 50 μL vehicle solution only or DTIC at 60 mg/kg (positive control) once daily. Tumor volume was measured every 2 days with a traceable electronic digital caliper (Fisher Scientific, Inc., Pittsburgh, Pa.) and calculated using the formula a×b^2×0.5, where a and b represented the larger and smaller diameters, respectively. Tumor volume was expressed in cubic millimeters. Data were expressed as mean±SE for each group and plotted as a function of time. […] Animal activity and average body weight of each group were monitored during the entire experiment period to assess compound toxicity. […]
The subject of another series is A375. As to the kind of experiment: Cell culture cytotoxicity (SRB) assay, A375. Conditions: Table 9, SRB, 48 h; read-out: IC50 ± SEM (nM) A375. Format: cell-based, human.
The test system of a further series is PC-3/TxR tumors. The note with it: PC-3/TxR xenograft, day 1 and 9; for Tumor size, End: end point day 19.
The next series relates to PC-3 tumors. Kind of series: PC-3 xenograft in nude mice. The note with it: day 1 and 9, end point day 19.
For the next series, the system named is PC-3. As to the kind of experiment: Apoptosis (cytoplasmic DNA-histone complex formation) in PC-3. The note with it: PC-3, 0.8 to 600 nmol/L, 24 h. In kind it is cell-based, human.
For series [9], the system named is A375RF21 cells. Kind of series: Apoptosis detection (Annexin V-FITC / propidium iodide). Conditions: A375RF21, 48 h, Annexin V / propidium iodide flow cytometry.
Another series deals with PC-3/TxR. As to the kind of experiment: Apoptosis (cytoplasmic DNA-histone complex formation) in PC-3/TxR. Format: cell-based, human. Conditions: 0.8 to 600 nmol/L, 24 h.
Series [10] concerns Bovine brain tubulin. Kind of series: HTS-tubulin polymerization assay (Example 1). Conditions: 20 μM, purified-protein assay.
For series [11], the system named is A375 cells. Kind of series: Cell cycle analysis (flow cytometry) in A375. In kind it is cell-based, human. The protocol:
as §2

Series [12] relates to A375RF21 cells. Kind of series: Cell proliferation MTS assay, vemurafenib-resistant A375RF21.
Excerpt: (§3) Cell proliferation viability was investigated using MTS or SRB assay as described previously. An in vitro study of the combination of vemurafenib and the tubulin inhibitors was designed and conducted using CalcuSyn software (Biosoft, Ferguson, Mo.) with five duplicates of each set of treatment. Drug concentrations were selected based on the IC50 value of each drug tested from a pilot study.
Series [13] has as its system A375 cells. As to the kind of experiment: Cell proliferation MTS assay, parental A375. The note with it: Homo sapiens, A-375, read-out: IC50 for proliferation inhibition.
Excerpt: as §3

Where two headings read alike, the source gives them in different places. Bounds are passed on as bounds.

T1 sequence (P81947 whole entry): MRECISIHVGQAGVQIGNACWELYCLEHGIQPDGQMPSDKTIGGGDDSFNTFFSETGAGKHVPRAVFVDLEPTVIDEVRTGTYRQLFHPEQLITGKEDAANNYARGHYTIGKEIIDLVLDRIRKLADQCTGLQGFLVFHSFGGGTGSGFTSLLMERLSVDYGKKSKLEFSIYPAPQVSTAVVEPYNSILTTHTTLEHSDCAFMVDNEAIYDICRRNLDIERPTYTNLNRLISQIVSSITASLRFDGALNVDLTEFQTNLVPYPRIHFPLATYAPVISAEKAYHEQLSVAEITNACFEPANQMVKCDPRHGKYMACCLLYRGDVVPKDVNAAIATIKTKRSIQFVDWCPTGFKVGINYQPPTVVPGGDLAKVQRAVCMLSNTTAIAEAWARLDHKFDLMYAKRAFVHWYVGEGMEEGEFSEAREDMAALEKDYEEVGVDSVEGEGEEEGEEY
T1 sequence (Q6B856 whole entry): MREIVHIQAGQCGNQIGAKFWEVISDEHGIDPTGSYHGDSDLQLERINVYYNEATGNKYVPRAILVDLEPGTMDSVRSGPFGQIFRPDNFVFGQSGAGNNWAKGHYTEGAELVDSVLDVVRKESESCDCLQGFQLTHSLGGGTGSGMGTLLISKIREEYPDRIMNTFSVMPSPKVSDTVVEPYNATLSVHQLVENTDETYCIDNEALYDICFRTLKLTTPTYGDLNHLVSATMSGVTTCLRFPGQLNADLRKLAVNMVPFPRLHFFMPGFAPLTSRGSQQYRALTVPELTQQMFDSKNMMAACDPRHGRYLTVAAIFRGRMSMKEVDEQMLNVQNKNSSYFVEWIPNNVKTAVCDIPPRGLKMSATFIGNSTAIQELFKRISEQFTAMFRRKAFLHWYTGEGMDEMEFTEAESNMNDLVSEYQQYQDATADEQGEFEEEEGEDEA

As for `COc1ccc(-c2nc(C(=O)c3ccc(F)cc3)c[nH]2)cc1` [12cb, (4-fluorophenyl)(2-(4-methoxyphenyl)-1H-imidazol-4-yl)methanone], on Bovine brain tubulin [1], the “inhibition of tubulin polymerization” value was “inhibited tubulin polymerization” and the inhibition at 10 µM is roughly 80%. Moreover, in the series with B16-F1 melanoma cells (20 nM), the “inhibition of colony formation” value is “effectively inhibited”. In addition, the “inhibition of metastasis of melanoma to the lungs” value (“inhibition … to the lungs” for short) in series [2] is recorded as “inhibition”.

`COc1cc(C(=O)c2c[nH]c(-c3ccc(C)cc3)n2)cc(OC)c1OC` [12da, (2-(p-tolyl)-1H-imidazol-4-yl)(3,4,5-trimethoxyphenyl)methanone]: the “suppression of parental A375 melanoma tumor growth in vivo” value in [3] was “effective”. Besides, the IC50 with NCl/ADR-RES is 19 nM; with OVCAR-8, 47 nM. Further, the pAKT/tAKT inhibition result (in series [4]; in the series on pAKT/tAKT in WM164 cells) was “strong dose-dependent pAKT/tAKT inhibition effects” in each case. In addition, on Bovine brain tubulin [1], the “inhibition of tubulin polymerization” value was “inhibited tubulin polymerization”. The “calculated CI values, all concentrations tested” value in the series on A375RF21 is 0.53-0.70. Also, the “inhibition of colony formation” value in the series on B16-F1 melanoma cells (20 nM) is listed as “effectively inhibited”. Also, the “effect on pERK or total ERK level” value in series [5] (A375RF21, 48 h incubation) is on record as “no obvious effect”. Also, in the series with A375RF21 cells [6] (24 h), the G2/M arrest entry was “induced G2/M arrest”. Also, the “inhibition … to the lungs” value in [2] is “inhibition”.

On to `Cc1ccc(-c2nc(C(=O)c3ccc(F)cc3)c[nH]2)cc1` [12db, (4-fluorophenyl)(2-(p-tolyl)-1H-imidazol-4-yl)methanone], for which the “inhibition of tubulin polymerization” value on Bovine brain tubulin [1] is reported as “inhibited tubulin polymerization”.

Regarding `COc1cc(C(=O)c2c[nH]c(-c3cc(OC)c(OC)c(OC)c3)n2)cc(OC)c1OC` [12ea, (3,4,5-trimethoxyphenyl)(2-(3,4,5-trimethoxyphenyl)-1H-imidazol-4-yl)methanone], the IC50 in series [7] fell in the range of 1 to 50 µM.

`O=C(c1ccc(F)cc1)c1c[nH]c(-c2ccc(Cl)cc2)n1` [12fb, (2-(4-chlorophenyl)-1H-imidazol-4-yl)(4-fluorophenyl)methanone]: the “inhibition of colony formation” value in the series with B16-F1 melanoma cells (100 nM) is “effective inhibition”. Also, the “inhibition … to the lungs” value in series [2] is on record as “inhibition”. Besides, the tolerability entry in series [8] is reported as “well tolerated dose”.

In series [7], `O=C(c1ccc(F)cc1)c1c[nH]c(-c2ccccc2C(F)(F)F)n1` [12ib, (4-fluorophenyl)(2-(2-(trifluoromethyl)phenyl)-1H-imidazol-4-yl)methanone] registered an IC50 of 1 to 50 µM.

For the compound `O=C(c1ccc(F)cc1)c1c[nH]c(-c2ccc(OCc3ccccc3)cc2)n1` [12jb, (2-(4-(benzyloxy)phenyl)-1H-imidazol-4-yl)(4-fluorophenyl)methanone], the “fold increase in activity compared with the para-hydroxy compound 12kb” value in series [7] (discussion of Table 9) is listed as 440 fold.

On to `COc1cc(C(=O)c2c[nH]c(-c3ccc(O)cc3)n2)cc(O)c1OC` [12kc], for which, in the series with A375, the IC50 was 10000 nM.

On to `CC(=O)O[C@@]12CO[C@@H]1C[C@H](O)[C@@]1(C)C(=O)[C@H](O)C3=C(C)[C@@H](OC(=O)[C@H](O)[C@@H](NC(=O)OC(C)(C)C)c4ccccc4)C[C@@](O)([C@@H](OC(=O)c4ccccc4)[C@H]21)C3(C)C` [Docetaxel, reference compound], for which the entries for the “Tumor size, End” value in the series on PC-3/TxR tumors (IV 10 mpk) and in the series with PC-3/TxR tumors (IV 20 mpk) were 1774 ± 183 mm^3 and 999 ± 905 mm^3, respectively. Besides, the results for the “Tumor size, Start” value with PC-3/TxR tumors (IV 10 mpk) and in the series with PC-3/TxR tumors (IV 20 mpk) were 143 ± 20 mm^3 and 170 ± 86 mm^3, respectively. Also, the “Body weight, End” value came out at 24 ± 2 g in the series on PC-3 tumors (IV 10 mpk) and 24 ± 3 g with PC-3 tumors (IV 20 mpk). Further, the “induction of cell apoptosis (DNA-histone complexes)” value in the series with PC-3 is “highly potent to induce apoptosis”; in the series on PC-3/TxR it was “weaker”. Further, in the series on A375RF21 cells [6] (24 h), the G2/M arrest entry is listed as “induced G2/M arrest”. The “cell apoptosis or death (sum of Q1, Q2 and Q4)” value in the series with A375RF21 cells [9] amounted to 6.4±3.0%.

As for `CCCS(=O)(=O)Nc1ccc(F)c(C(=O)c2c[nH]c3ncc(-c4ccc(Cl)cc4)cc23)c1F` [Vemurafenib], the “effect on tubulin polymerization” value with Bovine brain tubulin [10] is reported as “did not significantly influence tubulin polymerization”; with Bovine brain tubulin [10] (listed as vemurafenib), “did not have any effect on tubulin polymerization”. In addition, the G0/G1 arrest result in the series with A375 cells [11] (A375, 1 μM, 24 h) was “effectively arrested”; in the series on A375RF21 cells [6] (A375RF21, 1 μM, 24 h), “could not arrest”. The “concentration needed to produce G0/G1 cell cycle arrest” value is “less than 1 μM” with A375 cells [11] (parental A375, single agent) and no less than 30 µM in the series with A375RF21 cells [6] (resistant A375RF21, single agent). Also, the IC50 was found to be 28.9 ± 0.6 µM with A375RF21 cells [12] (Homo sapiens, read-out: IC50 for proliferation inhibition) and 0.57 ± 0.03 µM in the series on A375 cells [13]. In the series with A375RF21 cells [12] (MTS assay), the “fold increase of IC50 in A375RF21 versus parental A375” value is “over 50 fold”. Further, the “level of pAKT relative to tAKT” value in series [5] (A375RF21, 48 h, quantified lane density) is 70%. Further, the “cell apoptosis or death (sum of Q1, Q2 and Q4)” value in the series on A375RF21 cells [9] was found to be 11.9±3.5%.

Source of the values: US20180325872A1, “COMPOUNDS FOR TREATMENT OF CANCER” (UNIVERSITY OF TENNESSEE RESEARCH FOUNDATION, priority 2013, published 2018).
